Experimental data reported in ChEMBL document CHEMBL3638637, “Imidazo[1,2-Œ±]pyridine sulfonamides as TRPM8 modulators” (2015).

Target: Transient receptor potential M8 protein (Canis lupus familiaris, UniProt Q1A7N1)
Assay: FLIPR Assay: The functional activity of compounds of the formula (I) was determined by measuring changes in intracellular calcium concentration using a Ca2+-sensitive fluorescent dye. The changes in fluorescent signal were monitored by a fluorescence plate reader, either a FLIPR (Molecular Devices) or FDSS (Hamamatsu). Increases in intracellular Ca2+ concentration were readily detected upon activation with icilin.At 24 hrs prior to assay, HEK293 cells stably expressing canine TRPM8 were seeded in culture medium in black wall, clear-base poly-D-lysine coated 384-well plates (BD Biosciences, NJ, USA) and grown overnight in 5% CO2 at 37° C. On assay day, growth media was removed and cells were loaded with Calcium 3 Dye (Molecular Devices) for 35 min at 37° C., under 5% CO2 and then for 25 min at room temperature and atmosphere.
Assay type: cell-based

Chain of Transient receptor potential M8 protein (Q1A7N1 whole entry): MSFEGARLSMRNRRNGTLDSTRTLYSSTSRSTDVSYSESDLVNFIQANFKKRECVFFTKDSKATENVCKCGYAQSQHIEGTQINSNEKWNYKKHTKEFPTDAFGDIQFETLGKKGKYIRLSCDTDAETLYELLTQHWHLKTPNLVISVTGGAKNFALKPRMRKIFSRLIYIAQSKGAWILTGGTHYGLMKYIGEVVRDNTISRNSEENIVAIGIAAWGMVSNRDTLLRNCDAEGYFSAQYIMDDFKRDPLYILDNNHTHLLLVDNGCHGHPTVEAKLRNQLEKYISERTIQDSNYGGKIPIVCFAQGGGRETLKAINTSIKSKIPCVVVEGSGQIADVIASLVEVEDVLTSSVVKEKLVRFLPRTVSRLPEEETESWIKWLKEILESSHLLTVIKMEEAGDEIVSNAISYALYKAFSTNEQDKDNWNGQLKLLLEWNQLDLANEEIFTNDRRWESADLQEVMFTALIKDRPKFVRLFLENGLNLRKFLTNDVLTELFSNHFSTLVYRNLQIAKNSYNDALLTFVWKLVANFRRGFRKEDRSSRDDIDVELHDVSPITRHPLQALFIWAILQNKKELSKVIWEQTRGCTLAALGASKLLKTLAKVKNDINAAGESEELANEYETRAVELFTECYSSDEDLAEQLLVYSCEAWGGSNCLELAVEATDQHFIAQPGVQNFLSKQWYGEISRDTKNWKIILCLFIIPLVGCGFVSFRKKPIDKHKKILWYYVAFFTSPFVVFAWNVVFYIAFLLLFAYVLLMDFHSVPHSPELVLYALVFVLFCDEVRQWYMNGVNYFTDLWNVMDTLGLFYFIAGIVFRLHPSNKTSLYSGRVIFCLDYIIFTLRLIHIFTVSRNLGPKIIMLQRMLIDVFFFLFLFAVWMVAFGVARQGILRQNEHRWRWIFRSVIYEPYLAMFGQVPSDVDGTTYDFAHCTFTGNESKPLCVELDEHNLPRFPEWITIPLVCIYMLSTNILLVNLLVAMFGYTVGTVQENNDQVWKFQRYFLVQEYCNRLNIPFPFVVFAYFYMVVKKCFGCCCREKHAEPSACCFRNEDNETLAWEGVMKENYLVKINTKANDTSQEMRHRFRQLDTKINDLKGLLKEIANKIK

Work on Cc1c(N(Cc2ccc(F)c(C(F)(F)F)c2)S(=O)(=O)c2ccc(C(=O)O)cc2)nc2ccc(Cl)cn12 yielded an IC50 of 34.9 nM.
